Laboratory results reported in patent US20140366440A1, “METHOD FOR PRODUCING CLONE SEEDLINGS” (OKAYAMA PREFECTURE, priority 2009, published 2014).

Tested on: E. globulus (Clone E)
Assay: Rooting of shoots with wounded base in rooting medium containing oxidized glutathione
Assay type: in vivo, Eucalyptus globulus
Settings: Example 18: 50 mg/L in medium
Method: A base of the shoot thus obtained was planted to a foaming phenolic resin porous supporter (Manufactured by Smithers-Oasis Company; Product name: Oasis). […] The base of the shoot was cultured for two months in carbon dioxide gas of 1000 ppm at a temperature of 25° C. under irradiation of red light having photosynthesis photon flux density of 51.3 μmol/m^2/S and having a wavelength component of 650 nm to 670 nm to a wavelength component of 450 nm to 470 nm at a ratio of 8.2:1.8. The culturing was carried out with a culture container, which was a cube container (maximum size of about 10 cm to 11.5 cm in length×10 cm to 11.5 cm in width×10.0 cm in height) having a shape whose bulge was slightly protruded. […] Carbon dioxide gas outside the culture container was allowed to enter the culture container through this carbon dioxide gas permeable membrane covering the opening. Accordingly, carbon dioxide gas concentration inside the culture container was about 1000 ppm due to the permeation of the carbon dioxide gas through the film covering the opening of the culture container. The culture container was irradiated with red light by use of a light irradiation device (Product name: CCFL unit, maker's name: Nippon Medical& Chemical Instruments CO., LTD.). Further, humidity in the culture container is adjusted by sealing the culture container with Parafilm.
Nine shoots were planted per culture container. A rooting rate was calculated from the number of test pieces of the shoot and the number of shoots (the number of rooted shoots) which had been rooted after the foliage was cultured for two months.

Substance: oxidized glutathione
- Rooting rate (%) (27 test pieces): 88.9%
- Number of rooted shoots (of 27 test pieces): 24
